Laboratory results from patent US8143241B2, “DNA damage repair inhibitors for treatment of cancer” (Kudos Pharmaceuticals Limited, priority 2003, dated 2012).

What was measured:
[1] = tested on: HeLa cells; assay: Cell viability, HeLa cells exposed to PARP inhibitor and caffeine; details: 1 mM Caffeine plus KU0058684
Description: Error bars represent standard errors of the mean.
Caffiene was used to determine whether loss of ATM and ATR dependent DNA signalling pathways would induce sensitivity to PARP inhibition.

[2] = tested on: tankyrase; details: at concentrations up to 1 μM
[3] = tested on: RAD51 siRNA transfected HeLa cells; assay: Clonogenic survival, HeLa cells with RAD51 RNAi silencing; type: cell-based, human; details: continuous treatment
Description: Clonogenic survival curves of transfected HeLa cells under constant exposure to a range of concentrations of PARP inhibitor (KU0058684) for 12-14 days. […] SF50 for pSUPER-CFP-CONTROL transfected cells is >1×10^−5 M and is 1×10^−6 M for pSUPER-CFP-17/19/23 transfected cells.
HeLa cells were transfected using FuGene (Roche, USA) according to the manufacturers instructions. For clonogenic survival assays, cells were co-transfected in 6 well plates with pSUPER and a vector expressing blasticidin resistance (pEF-Bsd, Invitrogen, USA) at a ratio of 10:1 (pSUPER: pEF-Bsd). Twenty-four hours after transfection, cells were plated into replica plates and this was followed by treatment with PARP inhibitors and blasticidin 48 hours post transfection.

[4] = target: PARP-2 (Homo sapiens, UniProt Q9UGN5); assay: Inhibition of poly(ADP-ribose) polymerase activity of PARP-2; type: biochemical
Chain of PARP-2 (Q9UGN5 whole entry): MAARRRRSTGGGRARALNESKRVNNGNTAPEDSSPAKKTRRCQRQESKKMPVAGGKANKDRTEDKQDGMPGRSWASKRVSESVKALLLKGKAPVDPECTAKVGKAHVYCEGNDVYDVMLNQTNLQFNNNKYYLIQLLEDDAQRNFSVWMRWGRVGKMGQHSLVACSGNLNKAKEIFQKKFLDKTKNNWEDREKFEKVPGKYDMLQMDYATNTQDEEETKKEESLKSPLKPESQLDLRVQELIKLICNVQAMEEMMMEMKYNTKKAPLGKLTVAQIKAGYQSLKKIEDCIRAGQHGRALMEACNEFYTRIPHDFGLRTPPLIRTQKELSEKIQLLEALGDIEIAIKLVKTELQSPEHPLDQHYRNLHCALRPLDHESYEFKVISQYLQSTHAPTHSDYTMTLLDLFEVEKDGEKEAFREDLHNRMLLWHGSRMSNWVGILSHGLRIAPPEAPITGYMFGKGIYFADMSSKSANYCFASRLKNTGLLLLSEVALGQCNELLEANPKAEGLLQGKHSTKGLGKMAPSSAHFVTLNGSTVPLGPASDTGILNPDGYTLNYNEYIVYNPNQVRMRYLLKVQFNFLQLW

[5] = tested on: Brca2 deficient ES cells; assay: Clonogenic assay, continuous exposure, Brca2 deficient ES cells; type: cell-based, mouse
Procedure: (§1) For measurement of sensitivity to chemical inhibitors, cell cultures e.g. ES cells or mouse embryonic fibroblasts, in exponential growth were trypsinised and seeded at various densities in 6-well plates onto confluent monolayer of Mitomycin C (MMC) inactivated mouse embryonic fibroblasts and, where appropriate, treated with inhibitors after 18 h. For continuous exposure, cells were re-fed every 4 days with fresh medium and inhibitor. For timed exposures, inhibitor was added for the specified period then cells were washed and re-fed with fresh medium. After 10-14 days, cells were washed with PBS, fixed in methanol and stained with crystal violet. Colonies containing greater than approximately 50 cells were counted. Experiments were performed at least three times in triplicate.

[6] = tested on: Fancd2−/−, Fanca−/−, Fancc−/− and Fanca−/−c−/− fibroblasts; assay: Clonogenic survival, Fanconi anaemia mouse fibroblasts; type: cell-based; details: continuous exposure 12-14 days
Procedure: Mouse fibroblasts from wild-type, Fancd2^−/−, Fanca^−/−, Fancc^−/− and Fanca^−/−c^−/− animals were obtained from the Fanconi Anaemia Cell Repository, Oregon Health and Science University. These cells were maintained in DMEM, supplemented with FCS (10% v/v), glutamine and antibiotics. RAD54 and RAD52 Embryonic Stem (ES) cells were grown in DMEM, supplemented with FCS (15% v/v), glutamine, antibiotics, non-essential amino acids, 2-mercaptoethanol and Leukemia inhibitory Factor. HeLa cells (CCL-2) were obtained from ATCC (USA) and were maintained in DMEM, supplemented with FCS (10% v/v), glutamine and antibiotics.
as §1

[7] = target: PARP-3 (Homo sapiens, UniProt Q9Y6F1); assay: Selectivity: PARP-3 inhibition; type: biochemical; details: at concentrations up to 1 μM
Chain of PARP-3 (Q9Y6F1 whole entry, species assumed): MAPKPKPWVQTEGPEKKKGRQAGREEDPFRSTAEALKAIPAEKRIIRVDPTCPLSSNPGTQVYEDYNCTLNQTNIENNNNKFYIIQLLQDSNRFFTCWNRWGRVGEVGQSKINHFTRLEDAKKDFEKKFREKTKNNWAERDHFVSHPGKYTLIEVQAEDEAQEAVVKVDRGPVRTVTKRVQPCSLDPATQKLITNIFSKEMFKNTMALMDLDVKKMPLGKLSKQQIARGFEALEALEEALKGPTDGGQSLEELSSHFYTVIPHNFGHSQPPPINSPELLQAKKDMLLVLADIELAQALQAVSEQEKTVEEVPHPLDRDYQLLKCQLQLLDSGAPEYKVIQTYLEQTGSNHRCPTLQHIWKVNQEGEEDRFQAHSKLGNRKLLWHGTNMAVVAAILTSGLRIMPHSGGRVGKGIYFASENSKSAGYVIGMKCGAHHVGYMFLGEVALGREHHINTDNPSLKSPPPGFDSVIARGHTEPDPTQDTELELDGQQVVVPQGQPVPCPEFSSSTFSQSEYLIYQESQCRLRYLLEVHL

[8] = tested on: HeLa cells transfected with ATM, ATR, CHK1 or CHK2 silencing RNAi; assay: Cell viability, HeLa cells transfected with ATM, ATR, CHK1 or CHK2 silencing RNAi; type: cell-based, human; details: five days
Procedure: (§2) For cell viability assays, HeLa cells were co-transfected with pSUPER and pEFBsd in 96 well plates using FuGene (Roche, USA) according to the manufacturers instructions. Twenty-four hours after transfection, cells were plated into replica plates and this was followed by treatment with PARP inhibitors and blasticidin 48 hours post transfection. Media containing PARP inhibitors and blasticidin was replenished five days post-transfection and cell viability was measured at seven days using the 96 well plate CellTitre-Glo™ Luminescent Cell Viability Assay kit (Promega, USA, according to the manufacturers instructions).

[9] = tested on: HeLa cells with BRCA1, BRCA2 and RAD51 silencing; assay: Cell viability, HeLa cells with BRCA1, BRCA2 or RAD51 silencing; type: cell-based, human; details: five days
Procedure: as §2

[10] = tested on: HeLa cells transfected with DSS1 and RPA siRNA plasmids; assay: Cell viability, HeLa cells transfected with DSS1 and RPA siRNA plasmids; type: cell-based, human
Procedure: as §2

[11] = tested on: Brca1 deficient ES cells; assay: Clonogenic assay, continuous exposure, Brca1 deficient ES cells; type: cell-based, mouse
Procedure: as §1

[12] = tested on: Rad52 deficient ES cells; assay: Clonogenic survival, Rad52 deficient ES cells; type: cell-based
Procedure: as §1

[13] = target: vault PARP (Homo sapiens, UniProt Q9UKK3); assay: Selectivity: vault PARP inhibition; type: biochemical; details: at concentrations up to 1 μM
Chain of vault PARP (Q9UKK3 whole entry): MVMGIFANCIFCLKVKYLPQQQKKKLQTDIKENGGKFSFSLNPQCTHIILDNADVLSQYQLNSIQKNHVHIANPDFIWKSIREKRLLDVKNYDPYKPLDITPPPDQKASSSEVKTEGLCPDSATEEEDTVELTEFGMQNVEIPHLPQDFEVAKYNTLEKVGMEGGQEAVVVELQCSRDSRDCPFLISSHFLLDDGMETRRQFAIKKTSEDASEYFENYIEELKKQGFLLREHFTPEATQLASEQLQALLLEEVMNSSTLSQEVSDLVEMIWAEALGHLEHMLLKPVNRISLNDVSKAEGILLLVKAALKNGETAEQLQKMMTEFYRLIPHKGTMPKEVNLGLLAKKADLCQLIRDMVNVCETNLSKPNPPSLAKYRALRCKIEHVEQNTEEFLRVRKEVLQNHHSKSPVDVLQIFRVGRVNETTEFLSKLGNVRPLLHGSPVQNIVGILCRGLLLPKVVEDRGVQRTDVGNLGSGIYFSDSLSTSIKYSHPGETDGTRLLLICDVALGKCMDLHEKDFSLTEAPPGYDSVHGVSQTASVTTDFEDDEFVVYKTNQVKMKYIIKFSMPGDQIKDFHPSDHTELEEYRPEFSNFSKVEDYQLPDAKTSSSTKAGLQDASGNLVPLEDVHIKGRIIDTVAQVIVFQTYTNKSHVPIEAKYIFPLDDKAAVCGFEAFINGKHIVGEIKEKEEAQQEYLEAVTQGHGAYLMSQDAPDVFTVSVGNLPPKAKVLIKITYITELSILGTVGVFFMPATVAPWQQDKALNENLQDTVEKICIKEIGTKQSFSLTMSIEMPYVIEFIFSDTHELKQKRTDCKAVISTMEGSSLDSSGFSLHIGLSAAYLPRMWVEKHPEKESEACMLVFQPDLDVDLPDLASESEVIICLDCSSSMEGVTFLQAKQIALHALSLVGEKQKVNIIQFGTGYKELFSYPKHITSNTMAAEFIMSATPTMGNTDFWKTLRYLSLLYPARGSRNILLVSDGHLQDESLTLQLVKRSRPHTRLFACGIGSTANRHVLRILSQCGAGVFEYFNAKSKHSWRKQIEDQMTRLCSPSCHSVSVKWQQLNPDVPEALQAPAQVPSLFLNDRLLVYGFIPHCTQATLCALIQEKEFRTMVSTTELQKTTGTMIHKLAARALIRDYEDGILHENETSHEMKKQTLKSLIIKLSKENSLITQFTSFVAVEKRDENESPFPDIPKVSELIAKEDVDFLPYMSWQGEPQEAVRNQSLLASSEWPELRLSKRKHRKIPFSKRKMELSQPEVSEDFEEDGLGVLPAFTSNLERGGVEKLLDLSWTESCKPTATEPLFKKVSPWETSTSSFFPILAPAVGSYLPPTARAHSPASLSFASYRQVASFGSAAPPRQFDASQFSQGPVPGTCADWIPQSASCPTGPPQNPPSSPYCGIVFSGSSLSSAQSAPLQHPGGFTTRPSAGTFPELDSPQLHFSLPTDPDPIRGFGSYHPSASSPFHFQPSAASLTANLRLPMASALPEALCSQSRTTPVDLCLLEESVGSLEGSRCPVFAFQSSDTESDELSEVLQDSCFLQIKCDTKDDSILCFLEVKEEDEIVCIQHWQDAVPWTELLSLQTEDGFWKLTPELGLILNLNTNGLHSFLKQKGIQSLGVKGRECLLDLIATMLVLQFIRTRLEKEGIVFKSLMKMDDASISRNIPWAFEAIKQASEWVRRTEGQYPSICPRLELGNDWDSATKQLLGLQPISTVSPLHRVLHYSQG

[14] = tested on: NBS1−/− fibroblast cells; assay: SRB cell growth assay, NBS1 deficient fibroblasts vs MRC5; type: cell-based
Procedure: (§3) Cell growth was assessed using the sulforhodamine B (SRB) assay (Skehan, P. et al (1990) J. Natl. Cancer Inst. 82, 1107-1112) 2,000 cells were seeded into each well of a flat-bottomed 96-well microtiter plate in a volume of […] and incubated for 6 hours at 37° C. Cells were either replaced with media alone or with media containing PARP inhibitor or ATM inhibitor or both at a range of concentrations shown. Cells were then allowed to grow for a further 96 hours after which the media was removed and the cells fixed with […] of ice cold 10% (w/v) trichloroacetic acid. The plates were incubated at 4° C. for 20 minutes and then washed four times with water. Each well of cells was then stained with […] of 0.4% (w/v) SRB in 1% acetic acid for 20 minutes before washing four times with 1% acetic acid. Plates were then dried for 2 hours at room temperature. The dye from the stained cells was solubilized by the addition of […] of 10 mM Tris Base into each well. Plates were gently shaken and left at room temperature for 30 minutes before measuring the optical density at 564 nm on a Microquant microtiter plate reader.

[15] = tested on: FT/pEBS7 ATM−/− cells; assay: SRB cell growth assay, ATM deficient vs complemented cells; type: cell-based; details: FT/pEBS7 ATM−/− vs FT/pEBS7-Y25 ATM+/+
Procedure: as §3

[16] = tested on: HT29 cells; assay: SRB cell growth assay, ATM/PARP inhibitor combination; type: cell-based; details: KU-0059436 plus KU-60019
Procedure: as §3

Cn1c(=O)c2c(ncn2C)n(C)c1=O [Caffeine, reference compound]
sensitivity of HeLa cells to PARP inhibitor with caffeine [1]: increased sensitivity

O=C(c1cc(Cc2n[nH]c(=O)c3ccccc23)ccc1F)N1CCCNCC1 [KU0058948]
inhibition of tankyrase [2]: do not inhibit | clonogenic survival of RAD51 siRNA transfected cells compared to control transfected cells [3]: significant reduction in the clonogenic survival | inhibition of poly(ADP-ribose) polymerase activity of PARP-1 and PARP-2 [4]: potent and specific inhibitors | sensitivity of Brca2 mutant cells relative to KU0058684 [5]: even greater than that of KU0058684 | sensitivity of Brca2 deficient cells compared to otherwise isogenic cells ([5]; clonogenic assay): extremely sensitive | sensitivity of FA gene deficient fibroblasts compared to wild-type cells [6]: results in sensitivity | inhibition of PARP-3 [7]: do not inhibit | sensitivity of ATM, ATR, CHK1, CHK2 siRNA transfected HeLa cells compared to control plasmid [8]: increased sensitivity | sensitivity to PARP inhibition after BRCA1, BRCA2 and RAD51 silencing [9]: profound sensitivity | sensitivity of DSS1 and RPA siRNA transfected cells compared to control plasmid [10]: enhanced sensitivity | sensitivity of Brca1 mutant cells relative to KU0058684 [11]: even greater than that of KU0058684 | sensitivity of Brca1 deficient cells compared to otherwise isogenic cells ([11]; clonogenic assay): extremely sensitive | sensitivity of Rad52 deficient ES cells compared to wild-type cells [12]: no more sensitive | inhibition of vault PARP [13]: do not inhibit

O=C(c1cc(Cc2n[nH]c(=O)c3ccccc23)ccc1F)N1CCN(C(=O)C2CC2)CC1 [KU0059436]
sensitivity of NBS1 deficient cells compared to wild-type cells [14]: more sensitive | sensitivity of ATM deficient cells compared to wild-type cells [15]: more sensitive | sensitivity to PARP inhibition with ATM inhibitor combination [16]: Sensitivity to PARP inhibition was observed to increase with increasing concentrations of ATMI

C[C@@H]1CN(CC(=O)Nc2ccc3c(c2)Cc2cccc(-c4cc(=O)cc(N5CCOCC5)o4)c2S3)C[C@H](C)O1 [KU-60019, reference compound]
sensitivity to PARP inhibition with ATM inhibitor combination [16]: Sensitivity to PARP inhibition was observed to increase with increasing concentrations of ATMI
